Values quoted from earlier work as cited in patent US20070244041A1, “Peptide Yy Analogues” (Reoscience A/S, priority 2004, published 2007).
No end group written: not given here.

Tests used:
[1] = tested on: Y2 over Y1 receptors
[2] = tested on: vagal motor neurons; details: applied onto vagal motor neurons

selectivity for Y2 over Y1 receptors [1] | Substance | vagal motor neurons activated [2] | vagal motor neurons with inhibited firing rate [2]
high selectivity | NPY3-36: truncated neuropeptide Y with high selectivity for Y2 over Y1 receptors |  | 
 | PYY13-36: truncated PYY, a Y2 selective agonist (SPEELNRYYASLRHYLNLVTRQRY; ends and bridges not checked; UniProt P10082 41-64, looked up, fragment) | approximately 5% | approximately 50%
